Legend:
A549 cells [1] = assay: MTT assay, plateau phase A549 cells treated with 1-hydroxypyridine-2-thione, MGd and zinc; assay type: cell-based, human
Source text: (§1) Final mannitol concentration was 0.31% in all wells.

Ramos cells = assay: Cytotoxicity by propidium iodide uptake, flow cytometry; conditions: agent alone
Procedure: Gated cells with fluorescence at 585 nm from two cultures are shown for each time point. Error bars indicate standard deviation.
In other experiments (FIG. 11), Ramos cells grown in T-25 flasks were treated with a compound of Formula I (where M=Gd) (10 or 50 μM) and zinc (25 or 50 μM) for 1-2 days, Coulter counted, and analyzed by flow cytometry using propidium iodide.

A549 cells [2] = assay: MTT reduction proliferation assay, microtiter plate, A549 cells; assay type: cell-based, human; conditions: zinc by itself at 100 μM
Source text: as §1

## c1cc[n+]2c(c1)[S][Zn]1([O]2)[O][n+]2ccccc2[S]1 [ZnHPT, Zinc complex of 1-hydroxypyridine-2-thione]
A549 cells [1]; ZnHPT by itself at 0.625 μM, formed in situ from zinc acetate and 1-hydroxypyridine-2-thione, after one day (FIG. 12)
  effect on A549 cells: no significant effect
A549 cells [1]; in the presence of a compound of formula 1
  cytotoxic dose of the zinc complex of 1-hydroxypyridine-2-thione: lowered

## CC(=O)[O-].CC(=O)[O-].[Zn+2] [zinc, zinc acetate]
Ramos cells
  cytotoxicity as assessed by flow cytometry after staining with propidium iodide: did not increase cytotoxicity
A549 cells [2]; after one day
  effect on A549 cells: no significant effect
A549 cells [2]; after three days
  effect on A549 cells: no significant effect
